{"source": "patent US20240299358A1", "about": "“COMPOSITIONS AND METHODS FOR DIAGNOSIS AND TREATMENT OF AUTOIMMUNE DISEASES” (DUKE UNIVERSITY, priority 2021, published 2024)", "key": {"Human CD3+ T cells": {"system": "Human CD3+ T cells", "assay": "Cytokine expression after anti-CD3/28 T cell stimulation with or without HS-131", "format": "cell-based", "settings": "HS-131 1 μM, 24 hours, vs vehicle", "description": "The data were analyzed by 2-way ANOVA with Sidak's multiple comparison test, * p<0.05, ** p<0.01. *** p<0.001. Experiments were performed with 6 biological replicates. […] Experiments were performed with 3 biological replicates for each timepoint. […] Experiments were performed with 3 biological replicates for each timepoint. […] Temporal upregulation of eHsp90 (green line) post T cell stimulation. CD25 expression: 6-8 biological replicates per time point. eHsp90 expression 6 biological replicates for each timepoint. […] Data represent mean ±SD. The data were analyzed by 2-way ANOVA with Sidaks multiple comparison test. Experiments were performed once with 3 biological replicates. […] Data represent mean ±SEM. […] Experiment was performed once with 4 biological replicates.\nNext, the expression of eHsp90 and total Hsp90 over the course of T cell activation was tracked. Both total Hsp90 cellular content and eHsp90 expression in anti-CD3/28 stimulated human PBMCs were evaluated. […] Specifically, anti-CD3/28 stimulation caused eHsp90 up regulation in CD69+/CD25+ and CD69+/CD25− T-cell populations with a 5-8 fold increase within the first 24 hours post activation, whereas CD69−/CD25− T cells show no increase in probe or eHsp90 levels (see. FIG. 3B). […] One candidate client eHsp90 protein is CD25, the IL-2 receptor. […] Here it was observed that CD25 expression peaked at 72 hours post activation, followed by a reduction in expression thereafter which correlates with reduced eHsp90 expression (see. FIG. 3D). Due to the tight correlation of CD25 and eHsp90 expression, it further tested whether exogenous IL-2 stimulation could maintain high expression of both proteins in activated T cells 72-96 hours post-stimulation. […] Due to IL-2's ability to enhance eHsp90 expression in activated cells, the impacts of eHsp90 inhibition in activated T cells on inflammatory signaling were investigated. Human CD3+ T cells were stimulated with CD3/CD28 activating antibodies for 24 hours in the presence of HS-131. Compared to vehicle treated cells. […] IFNY (p<0.001). IL-17A (p<0.001). MIP-1a/B (p=0.013) and TNF a (p=0.025) (see. FIG. 3F)."}, "eHsp90": {"system": "eHsp90", "assay": "Flow cytometry uptake of fluor-tethered Hsp90 inhibitors by T cells from human PBMCs", "format": "cell-based", "settings": "anti-CD3/28 stimulated human PBMCs, following activation (FIG. 3A)", "description": "T-cell activation: PBMC aliquots (ZenBio SER-PBMC-F) were washed in RPMI-1640 with 10% FBS and PSG and then rested overnight in a T-75 flask. The suspended cells were then transferred to a fresh flask and activated in fresh RPMI-1640/10% FBS/PSG by 3:20,000 anti-CD3 (BioLegend 317303), 3:20,000 anti-CD28 (BioLegend 302913), and 1:10,000 (30 IU/mL) human IL-2 (CST 8907SC) and incubated for up to 72 hours. In the experiments with longer activation, samples were diluted 1:3 into fresh media containing hIL-2 at 72 hours post initial stimulation with CD3/CD28 antibodies.\nFlow Cytometry: The activated/rested cells were plated into a 96-well round bottom plate and pelleted at low speed. Cells were resuspended in chilled media containing titrated HS-131 or HS-198 (in 1% DMSO) and stained for 30 minutes at RT. Fluorochrome tagged inhibitors and media were washed away with a PBS wash, followed by a PBS wash containing 3% NMS. Surface antibody stains were performed in 3% NMS/PBS for 30 minutes followed by PBS washes (2x). Samples were analyzed on BD FACSCanto II flow cytometer. Permeabilized samples were prepared as previously described followed by fixation in 4% Formaldehyde/PBS overnight at 4° C. Sample analysis was performed with Flowing Software and FlowJo.\nA hallmark of T cell function is to proliferate rapidly in response to antigen presentation along with appropriate cytokine and costimulatory signaling. This leads to the induction of the chaperone machinery which is essential in facilitating this process. In some respects, antigen induced T cell proliferation may be analogous to oncogene driven metastasis. Therefore, to investigate whether proliferating T cells similarly express eHsp90 during T cell activation, their ability to absorb fluor-tethered Hsp90 inhibitors following an anti-CD3/CD28 challenge was examined (see. FIGS. 2A-2E). The structures of two types of fluor-tethered Hsp90 inhibitors (HS-131 and […]) that were used in the present studies are shown in FIG. 2A. […]"}}, "data": [{"compound": "Cc1nn(-c2ccc(C(N)=O)c(NCCCOCCOCCOCCOCCOCCCNCc3ccc(C(=C\\C=C4\\N(CCCCS(=O)(=O)[O-])c5ccccc5C4(C)C)/C=C/C4=[N+](CCCCS(=O)(=O)O)c5ccccc5C4(C)C)cc3)c2)c2c1C(=O)CC(C)(C)C2", "note": "[HS-131]", "values": [{"measurement": "GM-CSF", "setting": "Human CD3+ T cells; p<0.001", "value": "significantly reduced"}, {"measurement": "IFNY", "setting": "Human CD3+ T cells; p<0.001", "value": "significantly reduced"}, {"measurement": "IL-17A", "setting": "Human CD3+ T cells; p<0.001", "value": "significantly reduced"}, {"measurement": "MIP-1a/B", "setting": "Human CD3+ T cells; p=0.013", "value": "significantly reduced"}, {"measurement": "TNF a", "setting": "Human CD3+ T cells; p=0.025", "value": "significantly reduced"}, {"measurement": "eHsp90 expression upregulation as determined by HS-131 binding", "setting": "eHsp90", "value": "20-25 fold"}]}]}
